# According to ChEMBL document CHEMBL4507311, “Data for DCP probe A-1155463” (2021):
# Key:
# [1] = GPCRScan assay: inhibition of GABA/PBR; parameters: species or system Rattus norvegicus; radioligand conc. used [nm] 0.3 – 2.0, parental cells brain tissue
# [2] = tested on: Tyrosine-protein kinase ABL1 (Homo sapiens), P00519 [F317I]; conditions: Compound concentration 1000.0 nM
# [3] = tested on: Tyrosine-protein kinase ABL1 (Homo sapiens), P00519 [H396P]; conditions: Compound concentration 1000.0 nM
# [4] = target: Tyrosine-protein kinase ABL1 (Homo sapiens) (UniProt P00519); conditions: Compound concentration 1000.0 nM
# [5] = target: Tyrosine-protein kinase ABL1 (Homo sapiens) (UniProt P00519); conditions: Compound concentration 1000.0 nM; remark: listed apart in the source
# [6] = target: Atypical kinase COQ8B, mitochondrial (Homo sapiens) (UniProt Q96D53); conditions: Compound concentration 1000.0 nM
# [7] = tested on: ALK tyrosine kinase receptor (Homo sapiens), Q9UM73 [C1156Y]; conditions: Compound concentration 1000.0 nM
# [8] = target: NUAK family SNF1-like kinase 1 (Homo sapiens) (UniProt O60285); conditions: Compound concentration 1000.0 nM
# [9] = target: Mitogen-activated protein kinase kinase kinase 6 (Homo sapiens) (UniProt O95382); conditions: Compound concentration 1000.0 nM
# [10] = target: Bone morphogenetic protein receptor type-2 (Homo sapiens) (UniProt Q13873); conditions: Compound concentration 1000.0 nM
# [11] = target: Tyrosine-protein kinase BTK (Homo sapiens) (UniProt Q06187); conditions: Compound concentration 1000.0 nM
# [12] = target: Calcium/calmodulin-dependent protein kinase type 1B (Homo sapiens) (UniProt Q6P2M8); conditions: Compound concentration 1000.0 nM
# [13] = target: Cyclin-dependent kinase 4 (Homo sapiens) (UniProt P11802); conditions: Compound concentration 1000.0 nM
# [14] = target: Dual specificity protein kinase CLK1 (Homo sapiens) (UniProt P49759); conditions: Compound concentration 1000.0 nM
# [15] = target: Dual specificity protein kinase CLK4 (Homo sapiens) (UniProt Q9HAZ1); conditions: Compound concentration 1000.0 nM
# [16] = target: Epithelial discoidin domain-containing receptor 1 (Homo sapiens) (UniProt Q08345); conditions: Compound concentration 1000.0 nM
# [17] = target: Myotonin-protein kinase (Homo sapiens) (UniProt Q09013); conditions: Compound concentration 1000.0 nM
# [18] = tested on: Epidermal growth factor receptor (Homo sapiens), P00533 [UNDEFINED MUTATION]; conditions: Compound concentration 1000.0 nM
# [19] = target: Ephrin type-A receptor 2 (Homo sapiens) (UniProt P29317); conditions: Compound concentration 1000.0 nM
# [20] = target: Ephrin type-A receptor 6 (Homo sapiens) (UniProt Q9UF33); conditions: Compound concentration 1000.0 nM
# [21] = target: Focal adhesion kinase 1 (Homo sapiens) (UniProt Q05397); conditions: Compound concentration 1000.0 nM
# [22] = tested on: Receptor-type tyrosine-protein kinase FLT3 (Homo sapiens), P36888 [UNDEFINED MUTATION]; conditions: Compound concentration 1000.0 nM
# [23] = target: Vascular endothelial growth factor receptor 3 (Homo sapiens) (UniProt P35916); conditions: Compound concentration 1000.0 nM
# [24] = target: Glycogen synthase kinase-3 beta (Homo sapiens) (UniProt P49841); conditions: Compound concentration 1000.0 nM
# [25] = target: Interleukin-1 receptor-associated kinase 4 (Homo sapiens) (UniProt Q9NWZ3); conditions: Compound concentration 1000.0 nM
# [26] = tested on: Mast/stem cell growth factor receptor Kit (Homo sapiens), P10721 [D816H]; conditions: Compound concentration 1000.0 nM
# [27] = target: Serine/threonine-protein kinase LATS1 (Homo sapiens) (UniProt O95835); conditions: Compound concentration 1000.0 nM
# [28] = tested on: Leucine-rich repeat serine/threonine-protein kinase 2 (Homo sapiens), Q5S007 [G2019S]; conditions: Compound concentration 1000.0 nM
# [29] = target: Tyrosine-protein kinase Lyn (Homo sapiens) (UniProt P07948); conditions: Compound concentration 1000.0 nM
# [30] = target: Dual specificity mitogen-activated protein kinase kinase 4 (Homo sapiens) (UniProt P45985); conditions: Compound concentration 1000.0 nM
# [31] = target: Hepatocyte growth factor receptor (Homo sapiens) (UniProt P08581); conditions: Compound concentration 1000.0 nM
# [32] = target: Myosin light chain kinase family member 4 (Homo sapiens) (UniProt Q86YV6); conditions: Compound concentration 1000.0 nM
# [33] = target: Serine/threonine-protein kinase Nek1 (Homo sapiens) (UniProt Q96PY6); conditions: Compound concentration 1000.0 nM
# [34] = target: Serine/threonine-protein kinase PAK 6 (Homo sapiens) (UniProt Q9NQU5); conditions: Compound concentration 1000.0 nM
# [35] = target: Phosphatidylinositol 3-kinase C2 domain-containing subunit gamma (Homo sapiens) (UniProt O75747); conditions: Compound concentration 1000.0 nM
# [36] = target: Proto-oncogene tyrosine-protein kinase receptor Ret (Homo sapiens) (UniProt P07949); conditions: Compound concentration 1000.0 nM
# [37] = tested on: Proto-oncogene tyrosine-protein kinase receptor Ret (Homo sapiens), P07949 [V804L]; conditions: Compound concentration 1000.0 nM
# [38] = target: Ribosomal protein S6 kinase alpha-4 (Homo sapiens) (UniProt O75676); conditions: Compound concentration 1000.0 nM
# [39] = target: Serine/threonine-protein kinase SBK1 (Homo sapiens) (UniProt Q52WX2); conditions: Compound concentration 1000.0 nM
# [40] = target: NUAK family SNF1-like kinase 2 (Homo sapiens) (UniProt Q9H093); conditions: Compound concentration 1000.0 nM
# [41] = target: Tyrosine-protein kinase TXK (Homo sapiens) (UniProt P42681); conditions: Compound concentration 1000.0 nM
# [42] = target: Serine/threonine-protein kinase 32C (Homo sapiens) (UniProt Q86UX6); conditions: Compound concentration 1000.0 nM
# [43] = target: D(3) dopamine receptor (Homo sapiens) (UniProt P35462); conditions: Compound concentration 10.0 uM
# [44] = target: D(4) dopamine receptor (Homo sapiens) (UniProt P21917); conditions: Compound concentration 10.0 uM
# Rattus norvegicus = species on record: Rattus norvegicus; conditions: Compound concentration 10.0 uM
# Interleukin-1 receptor-associated kinase 4 (Homo sapiens), sequence (Q9NWZ3 whole entry): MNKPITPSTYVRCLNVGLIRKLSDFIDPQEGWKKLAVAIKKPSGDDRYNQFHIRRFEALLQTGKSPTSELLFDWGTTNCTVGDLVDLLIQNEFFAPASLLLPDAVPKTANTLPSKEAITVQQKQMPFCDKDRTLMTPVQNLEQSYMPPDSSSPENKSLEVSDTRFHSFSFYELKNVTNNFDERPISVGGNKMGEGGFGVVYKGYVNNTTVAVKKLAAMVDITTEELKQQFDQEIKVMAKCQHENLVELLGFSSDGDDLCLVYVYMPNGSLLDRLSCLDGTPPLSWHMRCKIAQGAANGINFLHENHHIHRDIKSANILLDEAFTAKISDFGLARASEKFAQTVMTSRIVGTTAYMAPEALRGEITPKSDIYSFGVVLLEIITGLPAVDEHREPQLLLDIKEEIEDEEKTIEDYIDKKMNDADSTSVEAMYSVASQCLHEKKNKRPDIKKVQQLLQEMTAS
# Epithelial discoidin domain-containing receptor 1 (Homo sapiens), sequence (Q08345 whole entry, the tested form may be a part): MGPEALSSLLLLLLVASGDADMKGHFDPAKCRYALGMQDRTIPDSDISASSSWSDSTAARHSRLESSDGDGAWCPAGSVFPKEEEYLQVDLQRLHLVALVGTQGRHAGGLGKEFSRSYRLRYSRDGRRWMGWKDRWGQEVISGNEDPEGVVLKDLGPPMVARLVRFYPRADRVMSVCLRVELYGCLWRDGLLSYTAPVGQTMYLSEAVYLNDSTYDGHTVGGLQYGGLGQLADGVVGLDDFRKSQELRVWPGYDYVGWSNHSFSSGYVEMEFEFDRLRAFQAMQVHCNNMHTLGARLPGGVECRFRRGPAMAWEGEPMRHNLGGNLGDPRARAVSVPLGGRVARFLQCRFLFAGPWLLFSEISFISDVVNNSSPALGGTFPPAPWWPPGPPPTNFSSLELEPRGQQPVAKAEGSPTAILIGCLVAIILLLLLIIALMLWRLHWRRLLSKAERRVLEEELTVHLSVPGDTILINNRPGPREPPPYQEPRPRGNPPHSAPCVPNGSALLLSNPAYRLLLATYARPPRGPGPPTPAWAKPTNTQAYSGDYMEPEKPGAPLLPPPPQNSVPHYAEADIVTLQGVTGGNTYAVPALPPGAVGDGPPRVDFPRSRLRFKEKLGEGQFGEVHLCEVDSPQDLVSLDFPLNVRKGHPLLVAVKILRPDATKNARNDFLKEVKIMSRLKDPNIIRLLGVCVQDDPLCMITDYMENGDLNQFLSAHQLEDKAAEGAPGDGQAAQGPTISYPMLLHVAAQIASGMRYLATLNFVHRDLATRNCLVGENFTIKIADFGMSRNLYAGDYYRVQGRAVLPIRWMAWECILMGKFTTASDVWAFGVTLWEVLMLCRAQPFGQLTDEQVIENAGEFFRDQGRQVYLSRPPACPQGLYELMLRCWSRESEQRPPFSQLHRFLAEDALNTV
# Mast/stem cell growth factor receptor Kit (Homo sapiens), P10721 [D816H], sequence (P10721 whole entry D816H): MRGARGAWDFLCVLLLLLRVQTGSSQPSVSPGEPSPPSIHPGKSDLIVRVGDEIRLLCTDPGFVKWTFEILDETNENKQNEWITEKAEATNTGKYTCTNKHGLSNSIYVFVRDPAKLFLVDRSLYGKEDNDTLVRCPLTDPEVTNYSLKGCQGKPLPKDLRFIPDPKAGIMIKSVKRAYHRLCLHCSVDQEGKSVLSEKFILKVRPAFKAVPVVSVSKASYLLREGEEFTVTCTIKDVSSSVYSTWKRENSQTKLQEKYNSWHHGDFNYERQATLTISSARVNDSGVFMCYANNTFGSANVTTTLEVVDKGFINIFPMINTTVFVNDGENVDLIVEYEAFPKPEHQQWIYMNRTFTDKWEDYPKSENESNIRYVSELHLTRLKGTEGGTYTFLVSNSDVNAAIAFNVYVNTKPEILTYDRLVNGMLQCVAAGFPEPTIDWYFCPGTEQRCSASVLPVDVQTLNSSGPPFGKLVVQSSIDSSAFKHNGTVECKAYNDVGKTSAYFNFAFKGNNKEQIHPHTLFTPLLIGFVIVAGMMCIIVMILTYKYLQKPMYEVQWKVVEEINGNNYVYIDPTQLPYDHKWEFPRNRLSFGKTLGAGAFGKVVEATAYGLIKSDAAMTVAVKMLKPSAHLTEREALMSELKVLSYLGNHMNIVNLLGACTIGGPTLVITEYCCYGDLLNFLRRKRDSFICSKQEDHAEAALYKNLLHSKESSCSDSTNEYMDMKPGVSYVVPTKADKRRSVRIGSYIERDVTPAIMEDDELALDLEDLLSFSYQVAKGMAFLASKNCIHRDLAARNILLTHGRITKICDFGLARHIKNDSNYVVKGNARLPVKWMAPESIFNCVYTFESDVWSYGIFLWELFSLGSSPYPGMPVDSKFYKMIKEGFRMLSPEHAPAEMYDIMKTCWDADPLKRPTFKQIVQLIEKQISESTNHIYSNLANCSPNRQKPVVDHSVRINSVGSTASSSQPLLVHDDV
# Serine/threonine-protein kinase 32C (Homo sapiens), sequence (Q86UX6 whole entry): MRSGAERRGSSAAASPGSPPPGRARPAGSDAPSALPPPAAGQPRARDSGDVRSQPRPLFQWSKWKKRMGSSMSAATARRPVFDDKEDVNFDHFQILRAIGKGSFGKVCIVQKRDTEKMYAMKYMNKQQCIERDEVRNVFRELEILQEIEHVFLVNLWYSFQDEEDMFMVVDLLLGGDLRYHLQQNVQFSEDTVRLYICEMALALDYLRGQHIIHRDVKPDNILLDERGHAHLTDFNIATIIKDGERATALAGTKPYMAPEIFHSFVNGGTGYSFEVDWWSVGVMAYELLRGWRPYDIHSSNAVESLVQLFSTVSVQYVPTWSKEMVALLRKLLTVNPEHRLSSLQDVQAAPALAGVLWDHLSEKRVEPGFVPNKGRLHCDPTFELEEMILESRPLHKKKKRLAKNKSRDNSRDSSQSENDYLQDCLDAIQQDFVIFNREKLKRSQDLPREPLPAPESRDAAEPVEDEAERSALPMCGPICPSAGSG
# Serine/threonine-protein kinase PAK 6 (Homo sapiens), sequence (Q9NQU5 whole entry, looked up, the tested form may be a part): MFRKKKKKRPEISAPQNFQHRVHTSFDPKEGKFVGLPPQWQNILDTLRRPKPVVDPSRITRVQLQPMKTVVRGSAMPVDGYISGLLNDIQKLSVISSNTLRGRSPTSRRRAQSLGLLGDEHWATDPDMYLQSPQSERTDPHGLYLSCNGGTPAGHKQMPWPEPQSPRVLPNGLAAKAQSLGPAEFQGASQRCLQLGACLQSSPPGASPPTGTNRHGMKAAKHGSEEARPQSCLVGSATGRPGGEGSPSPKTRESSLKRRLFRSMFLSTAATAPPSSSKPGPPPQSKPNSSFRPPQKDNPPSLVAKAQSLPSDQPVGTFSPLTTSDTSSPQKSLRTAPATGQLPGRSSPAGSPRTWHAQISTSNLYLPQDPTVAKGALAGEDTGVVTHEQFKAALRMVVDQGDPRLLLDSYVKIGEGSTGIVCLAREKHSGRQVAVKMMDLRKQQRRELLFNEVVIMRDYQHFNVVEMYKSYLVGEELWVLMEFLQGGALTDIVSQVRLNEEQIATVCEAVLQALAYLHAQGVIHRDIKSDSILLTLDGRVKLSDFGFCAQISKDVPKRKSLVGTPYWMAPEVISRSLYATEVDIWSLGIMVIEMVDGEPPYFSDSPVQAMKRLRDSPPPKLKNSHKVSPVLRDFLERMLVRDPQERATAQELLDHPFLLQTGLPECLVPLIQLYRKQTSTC
# D(4) dopamine receptor (Homo sapiens), sequence (P21917 whole entry): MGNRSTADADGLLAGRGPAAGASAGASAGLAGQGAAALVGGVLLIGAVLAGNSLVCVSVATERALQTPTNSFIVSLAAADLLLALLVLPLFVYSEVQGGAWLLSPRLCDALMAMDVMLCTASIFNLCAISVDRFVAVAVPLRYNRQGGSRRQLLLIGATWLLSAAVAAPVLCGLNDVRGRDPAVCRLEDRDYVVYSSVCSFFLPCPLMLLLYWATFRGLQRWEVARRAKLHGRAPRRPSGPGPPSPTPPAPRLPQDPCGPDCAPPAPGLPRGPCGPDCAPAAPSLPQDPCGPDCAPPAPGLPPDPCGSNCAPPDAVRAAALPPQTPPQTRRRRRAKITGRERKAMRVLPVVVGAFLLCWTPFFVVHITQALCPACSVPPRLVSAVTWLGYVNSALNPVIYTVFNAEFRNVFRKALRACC
# Atypical kinase COQ8B, mitochondrial (Homo sapiens), sequence (Q96D53 whole entry): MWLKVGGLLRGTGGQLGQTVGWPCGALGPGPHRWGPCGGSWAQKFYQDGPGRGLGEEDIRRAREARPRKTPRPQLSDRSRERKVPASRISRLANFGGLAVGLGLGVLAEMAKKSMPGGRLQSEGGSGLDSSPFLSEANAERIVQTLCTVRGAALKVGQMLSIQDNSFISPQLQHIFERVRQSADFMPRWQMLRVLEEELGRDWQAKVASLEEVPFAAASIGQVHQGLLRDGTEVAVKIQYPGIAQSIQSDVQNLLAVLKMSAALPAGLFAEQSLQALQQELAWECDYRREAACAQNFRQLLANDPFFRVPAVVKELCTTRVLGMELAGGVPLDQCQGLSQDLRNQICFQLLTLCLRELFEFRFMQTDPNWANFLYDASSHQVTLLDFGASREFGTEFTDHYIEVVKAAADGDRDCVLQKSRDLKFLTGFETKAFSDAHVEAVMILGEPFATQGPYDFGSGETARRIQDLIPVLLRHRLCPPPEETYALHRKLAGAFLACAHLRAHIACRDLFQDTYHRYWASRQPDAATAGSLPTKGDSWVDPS
# Dual specificity mitogen-activated protein kinase kinase 4 (Homo sapiens), sequence (P45985 whole entry): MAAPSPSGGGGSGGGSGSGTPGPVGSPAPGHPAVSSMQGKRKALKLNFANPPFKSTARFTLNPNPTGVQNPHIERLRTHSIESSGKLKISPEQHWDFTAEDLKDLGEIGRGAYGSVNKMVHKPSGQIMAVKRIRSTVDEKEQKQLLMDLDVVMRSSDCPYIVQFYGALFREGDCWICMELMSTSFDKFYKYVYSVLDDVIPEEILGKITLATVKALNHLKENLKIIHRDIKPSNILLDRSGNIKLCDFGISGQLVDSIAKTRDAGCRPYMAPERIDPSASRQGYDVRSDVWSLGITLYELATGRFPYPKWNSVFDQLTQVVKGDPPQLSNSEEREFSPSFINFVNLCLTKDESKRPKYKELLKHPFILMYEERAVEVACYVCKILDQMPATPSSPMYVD
smiles,measurement,setting,value
CN(C)CC#Cc1ccc(OCCCc2sc(N3CCc4cccc(C(=O)Nc5nc6ccccc6s5)c4C3)nc2C(=O)O)c(F)c1 [A-1155463],Ki,[1],794 nM
same,pKi,[1],6.1
same,residual activity,[2],100%
same,residual activity,[3],100%
same,residual activity,[4],100%
same,residual activity,[5],93%
same,residual activity,[6],99%
same,residual activity,[7],100%
same,residual activity,[8],80%
same,residual activity,[9],82%
same,residual activity,[10],100%
same,residual activity,[11],96%
same,residual activity,[12],100%
same,residual activity,[13],100%
same,residual activity,[14],88%
same,residual activity,[15],74%
same,residual activity,[16],100%
same,residual activity,[17],100%
same,residual activity,[18],89%
same,residual activity,[19],92%
same,residual activity,[20],100%
same,residual activity,[21],100%
same,residual activity,[22],100%
same,residual activity,[23],100%
same,residual activity,[24],93%
same,residual activity,[25],100%
same,residual activity,[26],71%
same,residual activity,[27],76%
same,residual activity,[28],100%
same,residual activity,[29],100%
same,residual activity,[30],100%
same,residual activity,[31],61%
same,residual activity,[32],99%
same,residual activity,[33],100%
same,residual activity,[34],100%
same,residual activity,[35],100%
same,residual activity,[36],100%
same,residual activity,[37],100%
same,residual activity,[38],96%
same,residual activity,[39],100%
same,residual activity,[40],82%
same,residual activity,[41],100%
same,residual activity,[42],75%
same,inhibition,[43],2.01%
same,inhibition,[44],-3.48%
same,inhibition,Rattus norvegicus,61.1%
